Common to all, as to format: functional
Assay [1] addresses Calcium-dependent protein kinase 1 (Plasmodium falciparum, UniProt P62344). Kind of assay: MMV: CDPK1 Protein kinase inhibition assay using recombinant PfCDPK1, syntide 2 peptide substrate, ATP and KinaseGlo to measure % inhibition at 1 uM MMV box compound.
For assay [2], the target named is T1, Calcium-dependent protein kinase 4 (Plasmodium falciparum (isolate 3D7), UniProt Q8IBS5).
T1 sequence (Q8IBS5 whole entry): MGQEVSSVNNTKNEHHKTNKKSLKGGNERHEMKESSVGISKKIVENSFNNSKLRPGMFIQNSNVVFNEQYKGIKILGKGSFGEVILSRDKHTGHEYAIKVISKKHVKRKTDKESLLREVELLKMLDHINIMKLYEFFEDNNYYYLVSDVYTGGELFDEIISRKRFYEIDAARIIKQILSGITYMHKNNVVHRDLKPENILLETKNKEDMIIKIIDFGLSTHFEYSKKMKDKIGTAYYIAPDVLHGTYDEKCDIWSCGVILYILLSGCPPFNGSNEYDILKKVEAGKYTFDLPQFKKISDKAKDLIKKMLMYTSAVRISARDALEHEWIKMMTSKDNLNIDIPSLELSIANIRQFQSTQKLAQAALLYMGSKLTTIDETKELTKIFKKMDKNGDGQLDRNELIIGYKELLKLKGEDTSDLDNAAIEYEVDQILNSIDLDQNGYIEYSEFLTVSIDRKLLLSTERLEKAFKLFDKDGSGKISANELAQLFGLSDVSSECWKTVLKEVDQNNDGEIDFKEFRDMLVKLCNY
Kind of assay: MMV: CDPK4 Protein kinase inhibition assay using recombinant PfCDPK4, syntide2 peptide substrate, ATP and KinaseGlo to measure % inhibition at 1 uM MMV box compound.

The target of assay [3] is T2, Mitogen-activated protein kinase (Plasmodium falciparum, UniProt Q25917).
T2 sequence (Q25917 whole entry): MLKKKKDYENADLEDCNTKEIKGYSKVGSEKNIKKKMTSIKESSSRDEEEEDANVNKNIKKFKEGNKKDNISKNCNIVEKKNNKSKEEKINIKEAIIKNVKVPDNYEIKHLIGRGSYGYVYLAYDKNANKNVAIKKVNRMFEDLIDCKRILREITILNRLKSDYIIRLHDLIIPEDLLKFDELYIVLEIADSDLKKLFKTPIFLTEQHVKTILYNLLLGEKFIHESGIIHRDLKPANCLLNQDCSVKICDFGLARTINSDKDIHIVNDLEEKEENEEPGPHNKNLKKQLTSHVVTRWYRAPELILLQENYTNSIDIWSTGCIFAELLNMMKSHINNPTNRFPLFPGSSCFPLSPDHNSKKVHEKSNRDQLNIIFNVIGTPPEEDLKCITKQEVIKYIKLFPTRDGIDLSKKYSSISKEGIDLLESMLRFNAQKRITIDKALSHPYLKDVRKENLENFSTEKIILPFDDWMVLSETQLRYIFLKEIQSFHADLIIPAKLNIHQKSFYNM
Kind of assay: Final concentrations were 1 uM ATP, 0.5 mM DTT, 1 mM MgCl2, 0.5 mg/mL BSA, and 10 ug/ml MAP2 in a buffer of 50 mM HEPES (pH 7.0). 0.5 mg/mL histone III-S served as the substrate (13); 100 uM AMP-PNP, an ATP analog, was used as a control inhibitor. Incubation time was 4 hours.

The next assay concerns the target T3, Proline--tRNA ligase (Plasmodium falciparum (isolate 3D7), UniProt Q8I5R7).
T3 sequence (Q8I5R7 whole entry): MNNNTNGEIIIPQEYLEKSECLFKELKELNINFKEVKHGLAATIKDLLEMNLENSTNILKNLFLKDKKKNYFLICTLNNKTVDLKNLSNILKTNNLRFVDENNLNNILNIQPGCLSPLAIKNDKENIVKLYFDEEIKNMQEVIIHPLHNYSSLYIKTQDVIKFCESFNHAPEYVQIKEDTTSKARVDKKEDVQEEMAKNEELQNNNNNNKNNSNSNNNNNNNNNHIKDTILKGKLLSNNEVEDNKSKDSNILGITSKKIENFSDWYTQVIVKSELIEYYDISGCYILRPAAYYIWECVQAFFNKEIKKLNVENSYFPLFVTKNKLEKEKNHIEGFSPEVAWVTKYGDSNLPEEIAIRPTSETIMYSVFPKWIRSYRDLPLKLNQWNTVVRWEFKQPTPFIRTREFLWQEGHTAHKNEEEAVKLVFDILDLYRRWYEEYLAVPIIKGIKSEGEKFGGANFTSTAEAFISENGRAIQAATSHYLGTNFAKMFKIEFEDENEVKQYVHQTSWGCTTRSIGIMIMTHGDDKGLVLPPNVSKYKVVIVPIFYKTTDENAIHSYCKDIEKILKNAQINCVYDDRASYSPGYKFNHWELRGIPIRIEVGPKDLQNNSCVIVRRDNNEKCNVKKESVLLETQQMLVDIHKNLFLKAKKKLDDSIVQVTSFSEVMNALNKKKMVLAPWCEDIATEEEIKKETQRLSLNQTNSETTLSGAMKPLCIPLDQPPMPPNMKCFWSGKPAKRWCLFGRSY
Kind of assay: MMV: ProRS recombinant Plasmodium falciparum Prolyl-tRNA-synthetase, assay with yeast tRNA, ATP, and proline and 3 uM MMV malaria box compound, assay read out with kinase glo as % inhibition.

For assay [4], the target named is T4, Cdk-related protein kinase 6 (Plasmodium falciparum, UniProt O77239).
T4 sequence (O77239 whole entry): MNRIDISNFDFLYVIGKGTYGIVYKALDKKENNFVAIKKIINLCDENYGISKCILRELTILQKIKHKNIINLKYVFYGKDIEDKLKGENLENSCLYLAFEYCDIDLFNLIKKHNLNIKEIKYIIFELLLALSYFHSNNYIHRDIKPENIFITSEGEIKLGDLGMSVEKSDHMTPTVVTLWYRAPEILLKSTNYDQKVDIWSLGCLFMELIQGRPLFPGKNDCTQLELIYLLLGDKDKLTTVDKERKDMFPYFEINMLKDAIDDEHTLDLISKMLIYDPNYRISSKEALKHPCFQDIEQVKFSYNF
Kind of assay: Final concentrations were 1.5 uM ATP, 5 mM MnCl2, and 15 ug/ml PK6 in a buffer of 100 mM Tris-HCl (pH 7.5). 50 ug/mL MBP was provided as the substrate; 10 uM staurosporine was used as a control inhibitor. Incubation time was 3 hours and 40 minutes.The catalytic activity of each kinase was considered proportional to ATP consumed, as determined from measurements of residual [ATP] with the luciferase-based reagent Kinase-Glo (Promega) following incubation. Luminescence (proportional to residual [ATP]) was measured on the plate readers FLx800 (BioTek Instruments, Winooski, VT, USA) and MicroBeta2.

Another assay concerns the target Lysine--tRNA ligase (Plasmodium falciparum (isolate 3D7), UniProt Q8IDJ8). Kind of assay: MMV: KRS recombinant Plasmodium falciparum Lysyl-tRNA-synthetase, assay with yeast tRNA, ATP, and lysine and 3 uM MMV malaria box compound, assay read out with kinase glo as % inhibition.
The target of assay [5] is T5, Putative uncharacterized protein pk7 (Plasmodium falciparum, UniProt O96214).
T5 sequence (O96214 whole entry): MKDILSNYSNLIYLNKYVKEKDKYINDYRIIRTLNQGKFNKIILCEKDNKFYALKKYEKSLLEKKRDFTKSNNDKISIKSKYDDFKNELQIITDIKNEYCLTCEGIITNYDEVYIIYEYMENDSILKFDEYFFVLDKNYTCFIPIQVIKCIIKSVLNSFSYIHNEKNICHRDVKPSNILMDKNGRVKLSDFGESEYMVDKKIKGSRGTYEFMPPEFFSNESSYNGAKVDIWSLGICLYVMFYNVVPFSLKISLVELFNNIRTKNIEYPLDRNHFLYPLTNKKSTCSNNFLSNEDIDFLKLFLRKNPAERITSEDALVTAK
Kind of assay: Final concentrations were 1 uM ATP, 2 mM DTT, 20 mM MgCl2, 2 mM MnCl2, 0.01% BSA, and 6 ug/ml PK7, in a buffer of 20 mM Tris-HCl (pH 7.5). The enzyme itself was the only substrate present (since autophosphorylation occurs); 100 uM 1NA-PP1 was used as a control inhibitor. Incubation time was 3 hours.

Chain of Lysine--tRNA ligase (Q8IDJ8 whole entry): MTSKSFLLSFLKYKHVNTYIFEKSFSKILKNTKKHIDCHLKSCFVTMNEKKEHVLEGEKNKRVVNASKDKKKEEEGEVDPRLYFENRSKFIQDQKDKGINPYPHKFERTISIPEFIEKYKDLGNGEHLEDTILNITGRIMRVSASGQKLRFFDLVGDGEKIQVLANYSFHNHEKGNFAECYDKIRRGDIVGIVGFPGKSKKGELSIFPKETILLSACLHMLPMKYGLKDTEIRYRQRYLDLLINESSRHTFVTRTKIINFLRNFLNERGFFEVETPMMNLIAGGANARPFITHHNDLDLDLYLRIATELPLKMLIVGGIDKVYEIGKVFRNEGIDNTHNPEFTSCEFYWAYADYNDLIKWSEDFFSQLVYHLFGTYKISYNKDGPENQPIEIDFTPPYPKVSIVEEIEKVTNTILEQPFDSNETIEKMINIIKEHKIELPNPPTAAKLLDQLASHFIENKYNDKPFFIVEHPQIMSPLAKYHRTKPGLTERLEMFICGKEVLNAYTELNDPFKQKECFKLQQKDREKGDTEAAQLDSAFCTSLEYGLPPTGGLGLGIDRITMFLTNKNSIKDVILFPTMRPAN
Chain of Calcium-dependent protein kinase 1 (P62344 whole entry): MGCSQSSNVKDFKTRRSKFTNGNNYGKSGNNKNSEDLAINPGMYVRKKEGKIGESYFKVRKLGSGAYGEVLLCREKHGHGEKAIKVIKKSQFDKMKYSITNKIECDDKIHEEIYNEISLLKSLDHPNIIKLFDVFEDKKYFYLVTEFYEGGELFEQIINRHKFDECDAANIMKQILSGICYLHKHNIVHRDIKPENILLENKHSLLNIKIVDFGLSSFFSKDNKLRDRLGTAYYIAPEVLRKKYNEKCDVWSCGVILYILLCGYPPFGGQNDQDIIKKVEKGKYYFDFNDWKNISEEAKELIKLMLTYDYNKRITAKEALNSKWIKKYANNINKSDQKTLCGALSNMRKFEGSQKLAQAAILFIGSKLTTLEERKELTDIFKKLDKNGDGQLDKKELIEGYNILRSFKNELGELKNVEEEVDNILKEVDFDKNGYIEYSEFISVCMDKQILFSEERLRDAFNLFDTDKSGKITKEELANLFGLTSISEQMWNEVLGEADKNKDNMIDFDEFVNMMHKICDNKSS

As to `C[n+]1c2ccccc2nc2ccc(NCCO)cc21`, the IC50 was greater than 1 µM in assay [1]; greater than 1 µM in assay [2]; greater than 1 µM in assay [3]; greater than 2.5 µM on Proline--tRNA ligase; greater than 1 µM in assay [4]; greater than 2.5 µM on Lysine--tRNA ligase. In addition, in assay [5], the IC50 was greater than 1 µM.

Regarding `Cc1ccc(-c2cc3c(nn2)-c2ccccc2C3=O)cc1`, the IC50 is greater than 1 µM in assay [1]; greater than 1 µM in assay [2]; greater than 1 µM in assay [3]; greater than 2.5 µM at Proline--tRNA ligase; greater than 1 µM in assay [4]; greater than 2.5 µM on Lysine--tRNA ligase. The IC50 in assay [5] is greater than 1 µM.

`COc1ccc(C(=O)Nc2nonc2-c2ccc(OC)c(OC)c2)cc1Cl`: the IC50 in assay [1] was greater than 1 µM; in assay [2], greater than 1 µM; in assay [3], greater than 1 µM; at Proline--tRNA ligase it was greater than 2.5 µM; in assay [4] it was greater than 1 µM; at Lysine--tRNA ligase, greater than 2.5 µM. In assay [5], this molecule displayed an IC50 greater than 1 µM.

For the molecule `Oc1ccc(Cl)cc1CNc1nc2ccccc2[nH]1`, the IC50 is greater than 1 µM in assay [1]; greater than 1 µM in assay [2]; greater than 1 µM in assay [3]; greater than 2.5 µM on Proline--tRNA ligase; greater than 1 µM in assay [4]; greater than 2.5 µM on Lysine--tRNA ligase. Besides, in assay [5], the IC50 is greater than 1 µM.

Regarding `CCOc1cc(Cl)c(C(C)NC(=O)c2ccccc2)cc1OCC` (stereo not given), the IC50 in assay [1] was greater than 1 µM; in assay [2], greater than 1 µM; in assay [3], greater than 1 µM; on Proline--tRNA ligase it was greater than 2.5 µM; in assay [4] it was greater than 1 µM; at Lysine--tRNA ligase it was greater than 2.5 µM. The molecule further gave an IC50 in assay [5] greater than 1 µM.

Take `O=C(Nc1ccc(Cl)cc1)N1CCN(c2ccc3nncn3n2)CC1`: the IC50 in assay [1] was greater than 1 µM; in assay [2] it was greater than 1 µM; in assay [3], greater than 1 µM; at Proline--tRNA ligase, greater than 2.5 µM; in assay [4], greater than 1 µM; at Lysine--tRNA ligase it was greater than 2.5 µM. Besides, the IC50 in assay [5] was greater than 1 µM.

Regarding `c1ccc2cc3c(Nc4ccc(N5CCOCC5)cc4)ccnc3cc2c1`, the IC50 is greater than 1 µM in assay [1]; greater than 1 µM in assay [2]; greater than 1 µM in assay [3]; greater than 2.5 µM on Proline--tRNA ligase; greater than 1 µM in assay [4]; greater than 2.5 µM at Lysine--tRNA ligase. This molecule gave an IC50 in assay [5] greater than 1 µM.

Take `CCn1c(SCC(=O)Nc2cc(C(F)(F)F)ccc2Cl)nc2ccccc2c1=O`: the IC50 is greater than 1 µM in assay [1]; greater than 1 µM in assay [2]; greater than 1 µM in assay [3]; greater than 2.5 µM at Proline--tRNA ligase; greater than 1 µM in assay [4]; greater than 2.5 µM at Lysine--tRNA ligase. Besides, in assay [5], the IC50 was greater than 1 µM.

Take `Cc1ccc(Cn2c(N3CCC(C(=O)NCc4cccs4)CC3)nc3ccccc32)cc1`: the IC50 was greater than 1 µM in assay [1]; greater than 1 µM in assay [2]; greater than 1 µM in assay [3]; greater than 2.5 µM on Proline--tRNA ligase; greater than 1 µM in assay [4]; greater than 2.5 µM at Lysine--tRNA ligase. The IC50 in assay [5] was greater than 1 µM.

`O=C(Nc1ccc(Cl)cc1C(=O)Nc1ccncc1)c1ccc(Cl)cc1Cl`: the IC50 is greater than 1 µM in assay [1]; greater than 1 µM in assay [2]; greater than 1 µM in assay [3]; greater than 2.5 µM at Proline--tRNA ligase; greater than 1 µM in assay [4]; greater than 2.5 µM on Lysine--tRNA ligase. In addition, in assay [5], the IC50 is greater than 1 µM.

Turning to `CCOc1ccc(-c2nonc2NC(=O)c2cccc(C)c2)cc1OCC`, the IC50 is greater than 1 µM in assay [1]; greater than 1 µM in assay [2]; greater than 1 µM in assay [3]; greater than 2.5 µM on Proline--tRNA ligase; greater than 1 µM in assay [4]; greater than 2.5 µM at Lysine--tRNA ligase. Further, the IC50 in assay [5] is greater than 1 µM.

With `CCCCc1ccc(NS(=O)(=O)c2cc3c4c(c2)CCN4C(=O)CC3)cc1`, the IC50 in assay [1] is greater than 1 µM; in assay [2], greater than 1 µM; in assay [3] it was greater than 1 µM; on Proline--tRNA ligase, greater than 2.5 µM; in assay [4] it was greater than 1 µM; on Lysine--tRNA ligase, greater than 2.5 µM. For the same molecule, in assay [5], the IC50 was greater than 1 µM.

Take `CCOC(=O)c1ccc2[nH]c(-c3ccccc3)cc(=O)c2c1`: the IC50 was greater than 1 µM in assay [1]; greater than 1 µM in assay [2]; greater than 1 µM in assay [3]; greater than 2.5 µM at Proline--tRNA ligase; greater than 1 µM in assay [4]; greater than 2.5 µM at Lysine--tRNA ligase. This molecule also returned an IC50 in assay [5] greater than 1 µM.

Turning to `COc1ccc(C2Sc3ccccc3N=C3C2=C(O)c2ccccc23)cc1` (stereo not given), the IC50 in assay [1] was greater than 1 µM; in assay [2], greater than 1 µM; in assay [3] it was greater than 1 µM; at Proline--tRNA ligase, greater than 2.5 µM; in assay [4], greater than 1 µM; on Lysine--tRNA ligase, greater than 2.5 µM. Besides, the IC50 in assay [5] is greater than 1 µM.

Take `CC1CCCCN1CCCNC(=O)c1ccc2c(c1)sc1nc(-c3ccc(F)cc3)cn12` (stereo not given): the IC50 in assay [1] is greater than 1 µM; in assay [2], greater than 1 µM; in assay [3], greater than 1 µM; at Proline--tRNA ligase it was greater than 2.5 µM; in assay [4] it was greater than 1 µM; on Lysine--tRNA ligase, greater than 2.5 µM. Besides, the IC50 in assay [5] is greater than 1 µM.

Values taken from ChEMBL document CHEMBL3301562, “MMV Box screening against Plasmodium falciparum protein kinases and aminoacyl tRNA synthetases”.
